From US20220008409A1, “CANCER COMBINATION THERAPY USING QUINOLINE CARBOXAMIDE DERIVATIVE” (KABUSHIKI KAISHA YAKULT HONSHA, priority 2018, published 2022) come the findings set out here.

For one experiment, the system named is K562. Kind of experiment: Combination effect by median-effect method, WST-8 assay. The format is cell-based, Human. The following applies: in combination with STX-1159, 48 hours. The text has this:
(§1) NCI-H2228, NCI-H1975, SK-BR-3, Hep3B, MCF-7, Caov-3, A2058, K562 and SUP-B15 were purchased from American Type Culture Collection, SAS and HuH-7 were purchased from National Institutes of Biomedical Innovation, Health and Nutrition, and K1, FTC-133 and Ishikawa were purchased European Collection of Authenticated Cell Cultures. […] Fetal bovine serum (hereinafter, abbreviated as FBS) and MCDB 105 culture medium were purchased from Sigma Aldrich (Cat. Nos. 172012 and 117-500), and RMPI1640 culture medium, DMEM medium, Ham's F-12 medium, MEM medium and IMDM culture medium were purchased Thermo Fisher Scientific (Cat. Nos. A1049101, 11995-065, 11765-054, 11095-080 and 12440-053).
(§2) The cells were inoculated on a 96-well plate to the density shown in Table 2, and were cultured under conditions of 5% CO2 and 37° C. The agents were singly added one day after the cells were inoculated. To the control group was added DMSO, so as to be a final concentration of 0.05%. Subsequently, the cells were cultured under conditions of 5% CO2 and 37° C. for the time shown in Table 2, and the number living cells was evaluated by WST-8 assay. That is, 10 μL of a WST-8 kit solution (Kishida Chemical Co., ltd, Cat. No. 260-96162) was added to each well, and the cells were cultured under conditions of 5% CO2 and 37° C. for 1 to 2 hours. The absorbance of water-soluble formazan generated by enzymatic activity of mitochondria in cells was measured at 450 nm using a microplate reader (Molecular Devices, Model: SpectraMax Plus). This was evaluated as the viable cell count to calculate a 50% cell growth inhibitory concentration (hereinafter, abbreviated as IC50).
(§3) The cells were inoculated on a 96-well plate so as to be the density shown in Table 2, and were cultured under conditions of 5% CO2 and 37° C. One day after the cells were inoculated, for single groups, STX-1159 and the agents were each added so as to be a final concentration which is ¼ times, ½ times, 1 time, 2 times or 4 times the reference dose, and for combination groups, STX-1159 and the agents were added so as to be a final concentration where STX-1159 and the agents combined were each ¼ times, ½ times, 1 time, 2 times or 4 times the reference dose. To the control group was added DMSO, so as to be a final concentration of 0.1%. Subsequently, the cells were cultured under conditions of 5% CO2 and 37° C. for the time shown in Table 2, and the number living cells was measured by WST-8 assay. The fraction affected (hereinafter, abbreviated as fa) was calculated from the following expression:
(§4) fa=1−(viable cell count in agent exposure group)/(viable cell count in control group).
(§5) By a median-effect method using combination effect analyzing software CalcuSyn (HULINKS), the combination index (hereinafter, abbreviated as CI) was calculated from fa obtained when STX-1159 and the agents were exposed alone or in combination. Evaluation of the combination effect was based on grading by CI in Table 4. In calculation of CI, the average of the values from two or more experiments was employed.
(In general: Tetrazolium dyes change colour on reduction, which living cells bring about.)

Another experiment relates to SUP-B15. Described as above. The conditions noted are these: in combination with STX-1159, 72 hours. The format is cell-based.
From the text: as §1, §2
as §3, with “expression: […]” for “expression:”
By a median-effect method using combination effect analyzing software CalcuSyn (HULINKS), the combination index (hereinafter, abbreviated as CI) was calculated from fa obtained when STX-1159 and the agents were exposed alone or in combination. […]

Another experiment has as its system Hep3B. Described as above. The format is cell-based, Human. The following applies: in combination with STX-1159, 72 hours.
From the text: as §1
(§6) The agents were singly added one day after the cells were inoculated. […] The absorbance of water-soluble formazan generated by enzymatic activity of mitochondria in cells was measured at 450 nm using a microplate reader (Molecular Devices, Model: SpectraMax Plus). This was evaluated as the viable cell count to calculate a 50% cell growth inhibitory concentration (hereinafter, abbreviated as IC50). The reference dose of each agent was set based on IC50 (Table 3).
(§7) One day after the cells were inoculated, for single groups, STX-1159 and the agents were each added so as to be a final concentration which is ¼ times, ½ times, 1 time, 2 times or 4 times the reference dose, and for combination groups, STX-1159 and the agents were added so as to be a final concentration where STX-1159 and the agents combined were each ¼ times, ½ times, 1 time, 2 times or 4 times the reference dose. […] The fraction affected (hereinafter, abbreviated as fa) was calculated from the following expression:
as §4, §5

Another experiment deals with HuH-7. The description is as above. The format is cell-based, Human. The following applies: in combination with STX-1159, 72 hours.
From the text: as §1, §6, §7, §4, §5

Experiment [1] is described as follows: Combination effect by median-effect method, summary over the cell lines of Example 1. The format is cell-based. The conditions noted are these: in combination with STX-1159; summary of Table 5. On the procedure:
The fraction affected (hereinafter, abbreviated as fa) was calculated from the following expression: fa=1-(viable cell count in agent exposure group)/(viable cell count in control group). […] Evaluation of the combination effect was based on grading by CI in Table 4. In calculation of CI, the average of the values from two or more experiments was employed.

Another experiment concerns NCI-H1975. Kind of experiment: Combination effect by median-effect method, WST-8 assay. The conditions noted are these: in combination with STX-1159, 72 hours. The format is cell-based, Human.
From the text: as §1, §6, §7, §4, §5

The test system of the next experiment is survivin. Kind of experiment: Western blotting in NCI-H2228 cells. The format is cell-based, Human. The following applies: agent alone, STX-1159 5 μM, 24 hours. Background: A western blot detects proteins with antibodies after separation by electrophoresis.
Another experiment deals with c-myc. In words: Western blotting in NCI-H2228 cells. The format is cell-based, Human. The conditions noted are these: 24 hours.
The next experiment addresses T1, phosphorylated STAT3 (Homo sapiens, UniProt P40763).
T1 construct: endogenous in cells; host or cells: NCI-H2228
In words: Western blotting in NCI-H2228 cells. The following applies: 24 hours. The format is cell-based.

Another experiment deals with SK-BR-3. Kind of experiment: Combination effect by median-effect method, WST-8 assay. The format is cell-based, Human. The following applies: in combination with STX-1159, 72 hours.
From the text: as §1, §2, §3, §4, §5

In the next experiment the test system is NCI-H2228. The description is as above. The format is cell-based, Human. The following applies: in combination with STX-1159, 72 hours.
From the text: as §1, §6, §7, §4, §5

The subject of the next experiment is K1. The experiment is described as above. The format is cell-based, Human. The following applies: in combination with STX-1159, 72 hours.
From the text: as §1, §6, §7, §4, §5

The test system of the next experiment is SAS. The following applies: in combination with STX-1159, 48 hours.
From the text: as §1, §2, §3, §4, §5

A further experiment relates to FTC-133. The conditions noted are these: in combination with STX-1159, 72 hours.
From the text: as §1, §2, §3, §4, §5

Another experiment has as its system Caov-3. The following applies: in combination with STX-1159, 72 hours.
From the text: as §1, §2, §3, §4, §5

Another experiment has as its system MCF-7. The conditions noted are these: in combination with STX-1159, 72 hours.
From the text: as §1, §2, §3, §4, §5

Another experiment deals with Ishikawa. The following applies: in combination with STX-1159, 72 hours.
From the text: as §1, §2, §3, §4, §5

The mark [2] stands for this setting: agent alone, STX-1159 5 μM, alectinib 0.01 or 0.1 μM.
Where [3] appears, read: both agents in combination (STX-1159 5 μM, alectinib 0.01 or 0.1 μM) versus each single agent.

T1 sequence (P40763 whole entry): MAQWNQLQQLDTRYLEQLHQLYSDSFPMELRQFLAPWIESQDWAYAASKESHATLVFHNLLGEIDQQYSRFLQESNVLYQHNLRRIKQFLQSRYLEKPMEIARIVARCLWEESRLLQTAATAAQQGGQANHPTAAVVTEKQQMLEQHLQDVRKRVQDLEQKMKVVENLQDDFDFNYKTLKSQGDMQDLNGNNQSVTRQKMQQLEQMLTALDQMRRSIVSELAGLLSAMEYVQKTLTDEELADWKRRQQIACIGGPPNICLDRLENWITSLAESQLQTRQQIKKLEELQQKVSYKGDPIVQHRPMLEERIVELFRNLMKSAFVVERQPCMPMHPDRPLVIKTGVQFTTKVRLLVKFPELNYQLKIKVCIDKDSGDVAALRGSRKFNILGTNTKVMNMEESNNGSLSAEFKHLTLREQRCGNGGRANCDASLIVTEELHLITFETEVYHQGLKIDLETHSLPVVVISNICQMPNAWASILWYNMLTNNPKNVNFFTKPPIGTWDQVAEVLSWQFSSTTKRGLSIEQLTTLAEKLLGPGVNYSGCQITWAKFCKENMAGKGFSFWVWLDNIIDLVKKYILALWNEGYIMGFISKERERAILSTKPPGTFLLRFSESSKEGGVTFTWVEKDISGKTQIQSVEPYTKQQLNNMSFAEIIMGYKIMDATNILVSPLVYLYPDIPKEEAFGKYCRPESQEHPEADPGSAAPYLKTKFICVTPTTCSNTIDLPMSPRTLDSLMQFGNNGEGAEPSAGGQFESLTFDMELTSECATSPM

Consider `Cc1nc(Nc2ncc(C(=O)Nc3c(C)cccc3Cl)s2)cc(N2CCN(CCO)CC2)n1` [Dasatinib, dasatinib], for which, in the experiment on K562, the CI is 0.78 and the Combination effect result is recorded as “Moderate synergetic effect (0.7 < CI ≤ 0.85)”. Further, in the experiment on SUP-B15, the CI was 0.71 and the Combination effect result is “Moderate synergetic effect (0.7 < CI ≤ 0.85)”.
`COc1cc2nccc(Oc3ccc(NC(=O)NC4CC4)c(Cl)c3)c2cc1C(N)=O` [Lenvatinib, lenvatinib]: in the experiment on Hep3B, the CI came to 0.75 and the Combination effect result is “Moderate synergetic effect (0.7 < CI ≤ 0.85)”. In addition, in the experiment on HuH-7, the CI was determined as 0.85 and the Combination effect entry is “Moderate synergetic effect (0.7 < CI ≤ 0.85)”. Moreover, in experiment [1], the “combination effect by the median-effect method” value is reported as “synergetic effect”.
With `Cc1ccc(NC(=O)c2ccc(CN3CCN(C)CC3)cc2)cc1Nc1nccc(-c2cccnc2)n1` [Imatinib], in the experiment on K562, the CI came out at 0.83 and the Combination effect entry is on record as “Moderate synergetic effect (0.7 < CI ≤ 0.85)”. Besides, in the experiment on SUP-B15, the CI is given as 0.85 and the Combination effect result is “Moderate synergetic effect (0.7 < CI ≤ 0.85)”. The “combination effect by the median-effect method” value in [1] is given as “synergetic effect”.
In the case of `C=CC(=O)Nc1cc(Nc2nccc(-c3cn(C)c4ccccc34)n2)c(OC)cc1N(C)CCN(C)C` [Osimertinib, osimertinib], in the experiment with NCI-H1975, the CI is on record as 0.81 and the Combination effect result was “Moderate synergetic effect (0.7 < CI ≤ 0.85)”. The “combination effect by the median-effect method” value in [1] is “synergetic effect”.
On to `O=C(Nc1nnc(-c2ccco2)o1)c1cc(-c2ccccc2)nc2ccc(OC(F)(F)F)cc12` [STX-1159, N-[5-(2-furyl)-1,3,4-oxadiazol-2-yl]-2-phenyl-6-tri fluoromethoxy-4-quinoline carboxamide], for which the amount of survivin entry with survivin is listed as “reduced”. The amount of c-myc result in the experiment on c-myc (setting [2]) is reported as “reduced”. The “amount of phosphorylated STAT3” value at phosphorylated STAT3 (setting [2]) is listed as “reduced”.
Regarding `CS(=O)(=O)CCNCc1ccc(-c2ccc3ncnc(Nc4ccc(OCc5cccc(F)c5)c(Cl)c4)c3c2)o1` [Lapatinib, lapatinib], in the experiment with SK-BR-3, the CI is 0.88 and the Combination effect entry is on record as “Light synergetic effect (0.85 < CI ≤ 0.9)”. Also, the “combination effect by the median-effect method” value in [1] is on record as “synergetic effect”.
Regarding `CCc1cc2c(cc1N1CCC(N3CCOCC3)CC1)C(C)(C)c1[nH]c3cc(C#N)ccc3c1C2=O` [Alectinib], the CI in the experiment with NCI-H2228 is recorded as 0.57. For the same compound, in the experiment on NCI-H2228, the Combination effect result was “Synergetic effect (0.3 < CI ≤ 0.7)”. Moreover, the “combination effect by the median-effect method” value in [1] was “synergetic effect”. In addition, the amount of c-myc result with c-myc (setting [2]) is “reduced”; in the experiment on c-myc (setting [3]), “more reduced”. Besides, the “amount of phosphorylated STAT3” value at phosphorylated STAT3 (setting [2]) is on record as “reduced”; at phosphorylated STAT3 (setting [3]), “more reduced”.
For `CNC(=O)c1cc(Oc2ccc(NC(=O)Nc3ccc(Cl)c(C(F)(F)F)c3)cc2)ccn1` [Sorafenib], the CI with K1 was 0.77; in the experiment on SAS, 0.56; in the experiment with FTC-133, 0.85. For the same compound, the Combination effect result in the experiment with K1 was “Moderate synergetic effect (0.7 < CI ≤ 0.85)”; in the experiment on SAS, “Synergetic effect (0.3 < CI ≤ 0.7)”; in the experiment with FTC-133, “Light synergetic effect (0.85 < CI ≤ 0.9)”. Also, the “combination effect by the median-effect method” value in experiment [1] is on record as “synergetic effect”.
In the case of `CO[C@H]1C[C@@H]2CC[C@@H](C)[C@@](O)(O2)C(=O)C(=O)N2CCCC[C@H]2C(=O)O[C@H]([C@H](C)C[C@@H]2CC[C@@H](OCCO)[C@H](OC)C2)CC(=O)[C@H](C)/C=C(\C)[C@@H](O)[C@@H](OC)C(=O)[C@H](C)C[C@H](C)/C=C/C=C/C=C/1C` [Everolimus, everolimus], the CI stood at 0.90 in the experiment with Caov-3, 0.73 in the experiment with MCF-7 and 0.89 in the experiment with Ishikawa. The Combination effect entry in the experiment on Caov-3 is recorded as “Light synergetic effect (0.85 < CI ≤ 0.9)”; in the experiment on MCF-7, “Moderate synergetic effect (0.7 < CI ≤ 0.85)”; in the experiment with Ishikawa, “Light synergetic effect (0.85 < CI ≤ 0.9)”. In addition, in experiment [1], the “combination effect by the median-effect method” value is reported as “synergetic effect”.
